How the values were obtained:
[1] = EZ4U colorimetric cytotoxicity test, HeLa; assay type: cell-based, human; conditions: human, HeLa cells; intrinsic cytotoxicity, compound alone, 3 days
Source text: The low intrinsic cytotoxicity of the additional drug component in the clinically used anticancer cocktails with traditional drugs is very important for treatment. This approach in chemotherapy can reduce the potential resulting toxic load on the body in the case of a combined action of these inhibitors on the activity of several targets. […] The effects of the tested compounds on cell survival are shown on Figure 4 and the CC50 values for three cell lines are shown in Table 1. The intrinsic cytotoxicity of a number of the studied compounds is quite high, namely, they have close IC50 values against the TDP1 and CC50 values on one or several studied cell lines. Most of the compounds generally were more toxic for the HEK293FT and HeLa cell lines than for the HEK293A cell line (Table 1 and Figure 4). The cytotoxicity of the three leader compounds, 7g, 10a, and 7h, was quite high. […] Compound 10b was one of the least toxic among the ten tested compounds.
Cytotoxicity of the compounds was examined against human cell lines HEK293A (human embryonic kidney)—WT, TDP1 deficient (Tdp1-/-), PARP1 deficient (PARP1-/-), and HeLa (cervical cancer) using an EZ4U colorimetric test (Biomedica, Vienna, Austria). The HEK293A cell line was obtained from Thermo Fisher Scientific (Waltham, MA, USA), and the HeLa cell line was obtained from the Russian Cell Culture Collection (RCCC) Institute of Cytology RAS, St. Petersburg, Russia. The cells were grown in DMEM/F12 medium (Gibco, Thermo Fisher Scientific, Waltham, MA, USA), with 1x GlutaMAX (Gibco, Thermo Fisher Scientific, Waltham, MA, USA), 50 IU/mL penicillin, 50 μg/mL streptomycin (MP Biomedicals), and in the presence of 10% fetal bovine serum (Biolot, Saint-Petersburg, Russia) in a 5% CO2 atmosphere. Cells were grown in the presence of 1% DMSO in the control wells. After the formation of a 30–50% monolayer, the tested compounds were added to the medium, and the cell culture was monitored for 3 days. The values were normalized to their own control in each case. At least three independent experiments were carried out. The 50% cytotoxic concentration (CC50) was defined as the compound concentration that reduced the cell viability by 50% when compared to the untreated controls. The compound concentration that caused 50% cell growth inhibition was determined using OriginPro 8.6.0 software (OriginLab, Northampton, MA, USA). The measurements were carried out in three independent experiments.

TDP2 = biological target: T1, TDP2 (Homo sapiens, UniProt O95551); assay: Gel-based TDP2 activity assay; assay type: biochemical
T1 construct: His-tag (N); made in house; host or cells: E. coli BL21 (DE3)
T1 sequence (O95551 1-362): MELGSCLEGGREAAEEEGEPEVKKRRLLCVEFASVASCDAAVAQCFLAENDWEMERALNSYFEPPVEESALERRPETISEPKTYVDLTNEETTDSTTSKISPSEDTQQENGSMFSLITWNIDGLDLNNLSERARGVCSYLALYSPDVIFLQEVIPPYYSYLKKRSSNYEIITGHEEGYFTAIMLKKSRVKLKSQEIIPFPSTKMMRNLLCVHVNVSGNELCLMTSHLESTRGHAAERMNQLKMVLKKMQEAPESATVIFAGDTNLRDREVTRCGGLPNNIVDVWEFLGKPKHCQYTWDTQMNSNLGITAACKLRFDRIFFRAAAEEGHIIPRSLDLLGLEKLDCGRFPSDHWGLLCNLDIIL
Procedure: To study the ability of the investigated compounds to inhibit TDP2 activity, we separated the TDP2 reaction products under denaturing conditions in polyacrylamide gel (PAGE). We tested the ability of TDP2 to eliminate tyrosine residues from the 5’ end of the oligonucleotide substrate in the absence and presence of TDP1 inhibitors. […] The residual TDP2 activity for the best four TDP1 inhibitors, 7g,h and 10a,b, was from 30 to 60%, depending on the tested compound, at a 1 mM concentration of the inhibitor. We tested the ability of compounds 7g,h and 10a,b to inhibit TDP2 activity at 0.2 mM and 0.5 mM concentrations (Figure S26).
The recombinant N-terminally His-tagged TDP2 was expressed in E. coli BL21 (DE3) cells. The plasmid pLATE-31-TDP2 expression vector was constructed as follows. cDNA encoding the TDP2 protein was cloned in the pLATE-31 expression vector using a LICator LIC Cloning and Expression System (Thermo Scientific, Waltham, MA, USA). […]
Oligonucleotide 5′- tyrosine -AAC GTC AGG GTC TTC C- FAM -3′ was synthesized as described above and used for the indication of TDP2 enzyme activity in polyacrylamide gel. […] A Typhoon FLA 9500 phosphorimager (GE Healthcare, Boston, MA, USA) was used for gel scanning and imaging, and the data were analyzed with QuantityOne 4.6.7 software (Bio-Rad Laboratories, Inc., Hercules, CA, USA).

| Structure (SMILES) | CC50 at 3 days [1] [µM] | TDP2 inhibition (in words) (TDP2) |
| --- | --- | --- |
| CC(=O)c1c(O)c(C)c(O)c2c1OC1=CC(=O)C(C(C)=O)C(=O)C12C (stereo not shown) [UA, usnic acid] | 20 ± 10 | did not inhibit TDP2 |
| CC(=O)C1=C(O)C=C2Oc3c(C(=O)C[S+]([O-])c4nc5ccccc5s4)c(O)c(C)c(O)c3[C@@]2(C)C1=O (stereo partly drawn) [10a, (2R)-4-acetyl-10-[2-(1,3-benzothiazole-2-sulfinyl)acetyl]-5,11,13-trihydroxy-2,12-dimethyl-8-oxatricyclo[7.4.0.0^2,7]trideca-1(13),4,6,9,11-pentaen-3-one] | 15 ± 1 | moderately inhibit TDP2 |
